Experimental data taken from patent EP4772500A1, “NOVEL ISOXAZOLE COMPOUND AS TM4SF5-SPECIFIC INHIBITOR AND USE THEREOF” (Seoul National University R&DB Foundation, priority 2023, dated 2025).

Test system: SNU449T7 cells
Assay: Liver-orthotopic xenograft model of TM4SF5-expressing cell line
Format: in vivo, BALB/c-Nude mice
Experimental: The next day, the cells were detached by treating with a T/E (Trypsin/EDTA) solution and centrifuged at 150x g for 3 minutes to obtain a pellet. Thereafter, the supernatant was removed, leaving only the pellet. After mixing with matrigel matrix (CORNING) such that the final concentration of EGF was 50 ng/µl, the cell pellet was prepared by resuspension in the mixture of EGF and matrigel. Then, 5x10^5 cells/20 µl were directly injected once into the liver of 6-week-old male BALB/c-Nude mice. At this time, the animals were anesthetized by inhalation with […] isoflurane and injected. From one week after the cell injection, drug ST-5-002 was intraperitoneally injected at 5 mg/kg twice a week. After injecting the drug for a total of 6 times over 3 weeks, the animals were sacrificed at the 4th week of cell injection, and liver tissues were obtained and analyzed.
(a-d) A liver-orthotopic xenograft model was established by directly injecting 5x10^5 SNU449T7 cells into the livers of 6-week-old male BALB/c-Nude mice (n=9), which are deficient in T and B cells but still capable of activating NK cell functions. Starting one week after the cell injection, the drug ST-5-002 was intraperitoneally injected at 5 mg/kg twice a week (a). After a total of 6 injections over 3 weeks, the animals were sacrificed at the 4th week of cell injection, and liver tissues were obtained and images of the livers were taken (b). Body weight was measured every week during the drug injections. Meanwhile, although cancer formation occurred in several places in the liver tissue, the cancer masses were […], and since it was practically difficult to measure the size or volume of small cancer masses due to time constraints for tissue specimen processing, the volume of the largest cancer mass was measured for each liver tissue. The tumor volumes calculated from n=7 liver tissues, excluding the maximum and minimum values, are shown (c). (d) For a portion of the liver tissues, the expression level, distribution, and localization of each factor, as well as the degree of damage to the liver cancer tissue, were confirmed through immunohistochemistry or H&E staining for the given protein factors.
(a-b) As in FIG. 20, a liver-orthotopic xenograft model was established by directly injecting 5x10^5 SNU449T7 cells into the livers of 6-week-old male BALB/c-Nude mice (n=9), which are deficient in T and B cells but still capable of activating NK cell functions. Starting one week after the cell injection, the drug ST-5-002 was intraperitoneally injected at 5 mg/kg twice a week. (b-d) After the end of the experiment, for a portion of the obtained liver tissues, the expression level, distribution, and localization of SLAMF7, SLAMF6, NKG2D, PD-L1, and PD-1 factors, as well as the degree of liver cancer tissue, were confirmed through immunohistochemistry.

[1] = mouse xenograft experiment, liver tissue extracts, Western blotting (FIG. 13e)

With Cc1ccc(C(=O)Nc2ccc(-c3cc(-c4ccc(O)cc4)no3)cc2)cc1 [ST-5-002, N-(4-(3-(4-hydroxyphenyl)isoxazole-5-yl)phenyl)-4-methylbenzamide] the “inhibitory effect on liver cancer formation” value (5 mg/kg IP twice a week, 6 times, images (FIG. 20b)) was “distinct”, the “distribution of cells highly expressing PD-L1” value (immunohistochemistry (FIG. 22e)) was “scattered and distributed at a low level inside the tumor” and the “infiltration of PD-1-expressing cells” value (immunohistochemistry (FIG. 22d)) was “scattered and distributed without restriction”. The “expressions of Ki67, AFP, F4/80, CCL2 and CCL20, and laminin γ2” value (immunohistochemistry of liver tissue (FIG. 20d)) was “significantly lower”, the “distribution of cells highly expressing SLAMF7” value (immunohistochemistry, interface of small tumors (FIG. 22b)) was “infiltrated and were distributed or localized inside the tumor” and the “degree of staining for SLAMF6 and NKG2D” value (immunohistochemistry, small cancerous areas (FIG. 22c)) was “further increased inside the tumor area”. For the same compound, the tumor volume (largest cancer mass per liver, 28th day, vs vehicle (FIG. 20c)) was “significantly reduced”, the SLAMF6 expression [1] was “increased” and the TIGIT expression level [1] was “lowered”.
